From patent US11446269B2, “Methods of reducing or preventing oxidation of small dense LDL or membrane polyunsaturated fatty acids” (Amarin Pharmaceuticals Ireland Limited, priority 2014, dated 2022)

Legend:
[1] = Glucose-induced membrane lipid peroxidation (LOOH, CHOD-iodide assay) in DLPC/cholesterol multilamellar vesicles (Example 4); assay type: biochemical
Protocol: Vitamin E (α-tocopherol) was also purchased from Sigma-Aldrich and prepared in ethanol at 1.0 mM (ε=3.06×10^4 M^−1 cm^−1 at 294 nm) just prior to experimental use. […] All test compounds were further diluted in ethanol or aqueous buffer as needed. Glucose was prepared in saline buffer (0.5 mM HEPES, 154 mM NaCl, pH 7.3) at 11.0 mM (200 mg/dL). CHOD-iodide color reagent (stock) was prepared, with slight modification, as described by from El-Saadani et al. (J. […] Samples were shell-dried under nitrogen gas and placed under vacuum for 1 h to remove residual solvent. […] Lipid suspensions were then vortexed for 3 min at ambient temperature to form MLVs. All MLV samples were subjected to time-dependent autoxidation by incubating at 37° C. in an uncovered, shaking water bath. This method allows lipid peroxidation to occur gradually without requiring the use of exogenous initiators. Small aliquots (5-100 μL) of each sample were removed, immediately following MLV preparation (0 hour) and after exposing samples to oxidative conditions for 72 or 96 hour, and combined with 1.0 mL of activated CHOD-iodide color reagent. Aliquot volume was reduced with each successive time point to ensure that spectrophotometric readings were within the optimal adsorption range. Test samples were covered and incubated in darkness at room temperature for at least 4 hr. Sample absorbances were then measured against a CHOD blank at 365 nm using a Beckman DU-640 spectrophotometer. The CHOD colorimetric assay is based on the oxidation of iodide (I^−) by lipid hydroperoxide (LOOH) to form triiodide (I3^−), the quantity of which is directly proportional to the amount of LOOH present in the lipid sample. The molar absorptivity (c) of I3^− is 2.46×10^4 M^−1 cm^−1 at 365 nm. […] The concentration of glucose selected was consistent with previous experimental studies of hyperglycemia under controlled laboratory conditions or observed in well-defined animal models of Type II diabetes following a glucose challenge. […] Values in FIG. 1 are mean±S.D. (N=6). EPA inhibited the peroxidative effects of glucose by 88% and 86% at 72 and 96 hours, respectively, which was highly significant (p<0.001) as compared to glucose treatment alone. […] Overall ANOVA—0 hour data: p=0.6655, F=0.4185; 72 hour data: p<0.0001, F=428.72; 96 hour data: p<0.0001, F=322.01.

[2] = LOOH formation in glucose-treated model membranes, EPA versus EA and ETE (Example 5); assay type: biochemical; details: 72 or 96 hr autoxidation
Protocol: An experiment was conducted to compare the ability of EPA to prevent lipid hydroperoxide formation in model membranes treated with glucose to two other 20-carbon fatty acids: eicosanoic acid (“EA,” also referred to as arachidic acid, C20:0) and eicosatrienoic acid (“ETE,” C20:3, n-3). All MLV samples were subjected to time-dependent autoxidation by incubating at 37° C. in an uncovered, shaking water bath. This method allows lipid peroxidation to occur gradually without requiring the use of exogenous initiators. Small aliquots (5-100 μL) of each sample were removed, immediately following MLV preparation (0 hr) and after exposing samples to oxidative conditions for 72 or 96 hr, and combined with 1.0 mL of activated CHOD-iodide color reagent. Aliquot volume was reduced with each successive time point to ensure that spectrophotometric readings were within the optimal adsorption range. Test samples were covered and incubated in darkness at room temperature for at least 4 hr. Sample absorbances were then measured against a CHOD blank at 365 nm using a Beckman DU-640 spectrophotometer. The CHOD colorimetric assay is based on the oxidation of iodide (I^−) by lipid hydroperoxide (LOOH) to form triiodide (I3^−), the quantity of which is directly proportional to the amount of LOOH present in the lipid sample. The molar absorptivity (ε) of I3^− is 2.46×10^4 M^−1 cm^−1 at 365 nm.

[3] = tested on: sdLDL; experiment: Copper-induced sdLDL oxidation (Example 12); assay type: biochemical, human; details: 10.0 μM, copper-induced oxidation 1 hour, vs vehicle
[4] = tested on: HUVECs; experiment: NO and ONOO^− release from HUVECs pretreated with agents, then oxLDL (Example 11, objective 1); assay type: cell-based, human; details: agents 10 μM, 30 min pretreatment, then oxLDL 11 mg/dL up to 3 hr
Protocol: Human umbilical vein endothelial cells (HUVECs) were obtained from healthy, female donors and isolated into primary, proliferating cell cultures (Clonetics, San Diego, Calif.). […] The confluent cells (4 to 5×10^5 cells/35 mm dish) were plated with minimum essential medium containing 3 mM L-arginine and 0.1 mM BH4 [(6R)-5,6,7,8-tetrahydrobiopterin]. Before experimental use, the cells (from second or third passage) were rinsed twice with Tyrode-HEPES buffer with 1.8 mM CaCl2.
Venous blood was collected from healthy volunteers into vacutainer tubes containing sodium EDTA. […] The LDL subfraction was retained for additional experimentation. Plasma and lipoprotein fractions were maintained at 4° C. and protected from excessive exposure to light. Prior to oxidation experiments, EDTA was removed from the lipoprotein fraction using PD-10 desalting columns (GE Healthcare, Piscataway N.J.). After equilibration of the column with phosphate buffered saline (PBS), 2.5 mL of the lipoprotein fraction was loaded on the column and the flow-through discarded. The lipoprotein was then eluted with 3 mL of PBS. The LDL fractions were further diluted with PBS to obtain a 100 μg/mL apoB100 concentration.
LDL underwent oxidation following the addition of 10 μM CuSO4. To measure oxidation, 100 μL aliquots were removed and combined with 1.0 mL thiobarbituric acid (0.5%), 10 μL trichloroacetic acid (5%), 10 μL BHT (5 mg/mL in methanol), and 10 μL EDTA (5 mM). […] Sample TBARS concentrations were determined spectrophotometrically by measuring sample absorbances against a standard curve derived from the hydrolysis of 1,1,3,3-tetramethoxypropane.
Concurrent measurements of NO and ONOO^− were performed with tandem electrochemical nanosensors combined into one working unit with a total diameter of 200-400 nm. […]
The amperometric method (with a response time of 0.1 ms) provides a quantitative signal (current) that is directly proportional to changes (from basal levels) in NO or ONOO^− concentration. […] Basal NO or ONOO^− levels were measured by differential pulse voltammetry in separate experiments. […]

Row | SMILES | antioxidant effect on glucose-induced LOOH formation ([1]; 1.0 μM, glucose 200 mg/dL, 96 hours) | effect on LOOH formation / lipid peroxidation ([1]; 72- and 96-hour time points, 1:30 drug-to-phospholipid mole ratio, glucose 200 mg/dL) | effect on membrane LOOH formation ([1]; tested at 1.0 and 5.0 μM, glucose-treated) | LOOH formation compared to vehicle, glucose, glucose + EA, glucose + ETE [2] | reduction of sdLDL oxidation [3] [%] | NO/ONOO^− Ratio [4] | NO release ([4]; calcium ionophore) | NO/ONOO^− Ratio ([4]; listed as niacin)
1 | CC/C=C\C/C=C\C/C=C\C/C=C\C/C=C\CCCC(=O)O [EPA, cis-5,8,11,14,17-eicosapentaenoic acid] | potent antioxidant effects | significantly inhibited LOOH formation | inhibit membrane LOOH formation in a dose-dependent manner | significantly less LOOH formation | > 90 |  |  | 
2 | O=C(O)c1cccnc1 [Niacin, nicotinic acid] |  |  |  |  |  | 1.45 ± 0.14 | 346 ± 17 | 1.45±0.14
